Reference: patent publication US20230183216A1, “PYRIDIZIN-3(2H)-ONE DERIVATIVES” (Gilead Sciences, Inc., priority 2021, published 2023)
pEC50, pIC50: −log10 of the molar value.

Columns and labels:
[1] = biological target: T1, PARP7 (Homo sapiens, UniProt Q7Z3E1); assay: biochemical;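 further: MSD light signal quantifying PARP7 captured by a plate-immobilized probe, read after 1.5 h equilibration plus 1.5 h with SULFO-TAG anti-GST antibody at room temperature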
T1 sequence (Q7Z3E1 1-657): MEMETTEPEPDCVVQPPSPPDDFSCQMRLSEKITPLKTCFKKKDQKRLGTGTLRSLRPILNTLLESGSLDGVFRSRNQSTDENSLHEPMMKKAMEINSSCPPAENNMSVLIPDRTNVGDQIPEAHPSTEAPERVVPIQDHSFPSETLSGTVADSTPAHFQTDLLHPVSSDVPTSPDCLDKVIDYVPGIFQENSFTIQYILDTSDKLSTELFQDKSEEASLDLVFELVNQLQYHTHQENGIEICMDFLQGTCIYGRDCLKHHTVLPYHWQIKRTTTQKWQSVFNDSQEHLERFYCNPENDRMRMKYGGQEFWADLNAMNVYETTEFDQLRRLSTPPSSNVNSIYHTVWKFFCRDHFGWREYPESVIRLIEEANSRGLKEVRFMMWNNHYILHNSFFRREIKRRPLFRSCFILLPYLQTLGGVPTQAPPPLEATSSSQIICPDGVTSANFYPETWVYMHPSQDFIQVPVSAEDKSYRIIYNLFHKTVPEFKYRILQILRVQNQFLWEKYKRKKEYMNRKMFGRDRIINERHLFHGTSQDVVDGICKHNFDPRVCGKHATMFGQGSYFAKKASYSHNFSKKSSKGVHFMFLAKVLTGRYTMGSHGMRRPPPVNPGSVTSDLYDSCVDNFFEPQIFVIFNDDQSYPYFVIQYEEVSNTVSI
Experimental: Probe Displacement Assay for PARP7 Displacement of a biotinylated probe (RBN011147; Wigle et al., Cell Chemical Biology, 2020, pp. 877-887) from the PARP7 NAD+-binding site was measured in vitro using a Mesoscale Discovery electrochemiluminescent assay. […] Next, 10 μl of 10 nM PARP7 protein incubated for 1 hour at room temperature with a dose response curve of each test compound in a Greiner LDV polypropylene plate (#781201) is added to the MSD plate containing the immobilized probe. The interaction is allowed to reach equilibrium for 1.5 hours, and then 10 ul of SULFO-TAG labeled anti-GST antibody (Cat #R32AA-1) is added to each well and allowed to incubate for an additional 1.5 hours at room temperature. Finally, 10 μl of MSD read buffer T (4×, Cat. #R92C-1) is added to each well using a Bravo liquid handler to prevent air bubbles in the wells, and the plates are subsequently read in an MSD instrument. Light intensity is then measured to quantify the amount of PARP7 bound to the immobilized probe on the plate.

[2] = tested on: STAT1 (phosphorylated at Tyr701) in NCI-H1373 cells; assay: Phospho-STAT1 (Tyr701) LANCE Ultra TR-FRET Detection Assay; assay type: cell-based; settings: Homo sapiens, 48 hours, induction of pSTAT1, normalized to 10 uM positive control and DMSO, 4-parameter fit, read-out: NH1373 pSTAT1 EC50
Experimental: Phospho-STAT1 (Tyr701 LANCE Ultra TR-FRET Detection Assay
LANCE Ultra phospho-STAT1 (Tyr701) kits available from Perkin Elmer are designed for the detection of phosphorylated STAT1 in cell lysates using a simple, homogeneous LANCE Ultra sandwich assay (Cat. #TRF4028M). This assay is intended for assessing compound induction of endogenous levels of cellular STAT1 (phosphorylated at Tyr701) in NCI-H1373 cells. The NCI-H1373 cells are cultured in RPMI 1640 media containing 10% heat inactivated FBS, GlutaMAX, 1% Penicillin-Streptomycin. An Echo acoustic liquid handler is used to transfer 60 nanoliters of compound dilutions using the Echo Qualified, 384-well polypropylene microplate clear flat bottom source plates into a Greiner (#781080) cell culture microplate. NCI-H1373 cells are seeded into these compound-spotted culture plates at 30,000 cells/well in a 60 uL volume in growth media. The plates are incubated in a 5% CO2 humidified incubator at 37° C. for 48 hours. […] Briefly, 20 μL of supplemented lysis buffer is added to each well and allowed to shake for 1 hour at 400 rpm. Next, 5 ul of remixed antibody solutions (vol/vol) prepared in detection buffer are added to each well and allowed to incubate at room temperature overnight. After spinning the plate down at 300 rpm for […], the plate is read on an EnVision plate reader set up for Eu3+ Cryptate and fluorescence emission is measured at two different wavelengths (665 nm and 620 nm).

With `O=C([C@@H]1C[C@@H]1CNc1cc(C(F)(F)F)c(=O)[nH]n1)N1CCN(c2ncc(C(F)(F)F)cn2)CC1` (racemic) [Example 24, Cis-(+)-4-(trifluoromethyl)-6-(((2-(4-(5-(trifluoromethyl)pyrimidin-2-yl)piperazine-1-carbonyl)cyclopropyl)methyl)amino)pyridazin-3(2H)-one] the pIC50 [1] was 8.99 and the pEC50 [2] was 5.53.
Compound `O=C(CCC[C@@H]1CCCc2c1n[nH]c(=O)c2C(F)(F)F)N1CCN(c2ncc(C(F)(F)F)cn2)CC1` (single isomer, unassigned) [Example 76] has a pIC50 [1] of 9.65 and a pEC50 [2] of 7.42.
In the case of `O=C(CCC[C@H]1CCCc2c1n[nH]c(=O)c2C(F)(F)F)N1CCN(c2ncc(C(F)(F)F)cn2)CC1` (single isomer, unassigned) [Example 77], the pIC50 [1] was 8.85 and the pEC50 [2] was 6.28.
`O=C(CCCCc1cc(C(F)(F)F)c(=O)[nH]n1)N1CCN(c2ncc(C(F)(F)F)cn2)CC1` [Example 1, 6-(5-oxo-5-(4-(5-(trifluoromethyl)pyrimidin-2-yl)piperazin-1-yl)pentyl)-4-(trifluoromethyl)pyridazin-3(2H)-one] showed a pIC50 [1] of 9.54 and a pEC50 [2] of 7.22.
Compound `O=C(CCCCCc1cc(C(F)(F)F)c(=O)[nH]n1)N1CCN(c2ncc(C(F)(F)F)cn2)CC1` [Example 2, 6-(6-oxo-6-(4-(5-(trifluoromethyl)pyrimidin-2-yl)piperazin-1-yl)hexyl)-4-(trifluoromethyl)pyridazin-3(2H)-one] has a pEC50 [2] of at most 5.00.
`O=C(CCc1ccccc1-c1cc(C(F)(F)F)c(=O)[nH]n1)N1CCN(c2ncc(C(F)(F)F)cn2)CC1` [Example 3, 6-(2-(3-oxo-3-(4-(5-(trifluoromethyl)pyrimidin-2-yl)piperazin-1-yl)propyl)phenyl)-4-(trifluoromethyl)pyridazin-3(2H)-one] was tested, and the pEC50 [2] was at most 5.00.
Compound `O=C(Cc1ccccc1-c1cc(C(F)(F)F)c(=O)[nH]n1)N1CCN(c2ncc(C(F)(F)F)cn2)CC1` [Example 4, 6-(2-(2-oxo-2-(4-(5-(trifluoromethyl)pyrimidin-2-yl)piperazin-1-yl)ethyl)phenyl)-4-(trifluoromethyl)pyridazin-3(2H)-one] has a pIC50 [1] of 7.44 and a pEC50 [2] of at most 5.00.
With `O=C(CCCc1ccccc1-c1cc(C(F)(F)F)c(=O)[nH]n1)N1CCN(c2ncc(C(F)(F)F)cn2)CC1` [Example 5, 6-(2-(4-oxo-4-(4-(5-(trifluoromethyl)pyrimidin-2-yl)piperazin-1-yl)butyl)phenyl)-4-(trifluoromethyl)pyridazin-3(2H)-one] the pEC50 [2] was at most 5.00.
`O=C(CCc1cc(C(F)(F)F)c(=O)[nH]n1)N1CCN(c2ncc(C(F)(F)F)cn2)CC1` [Example 7, 6-(3-oxo-3-(4-(5-(trifluoromethyl)pyrimidin-2-yl)piperazin-1-yl)propyl)-4-(trifluoromethyl)pyridazin-3(2H)-one] was tested, and the pIC50 [1] was 9.02 and the pEC50 [2] was 6.46.
For `CC(CCCC(=O)N1CCN(c2ncc(C(F)(F)F)cn2)CC1)c1cc(C(F)(F)F)c(=O)[nH]n1` (centres unmarked) [Example 8, 6-(6-oxo-6-(4-(5-(trifluoromethyl)pyrimidin-2-yl)piperazin-1-yl)hexan-2-yl)-4-(trifluoromethyl)pyridazin-3(2H)-one], the pIC50 [1] was 8.86 and the pEC50 [2] was 6.15.
Compound `O=C(N1CCN(c2ncc(C(F)(F)F)cn2)CC1)C1(CCCc2cc(C(F)(F)F)c(=O)[nH]n2)CC1` [Example 9, 4-(trifluoromethyl)-6-(3-(1-(4-(5-(trifluoromethyl)pyrimidin-2-yl)piperazine-1-carbonyl)cyclopropyl)propyl)pyridazin-3(2H)-one] has a pIC50 [1] of 8.84 and a pEC50 [2] of 5.75.
In the case of `CC(C)(CCCc1cc(C(F)(F)F)c(=O)[nH]n1)C(=O)N1CCN(c2ncc(C(F)(F)F)cn2)CC1` [Example 10, 6-(4,4-dimethyl-5-oxo-5-(4-(5-(trifluoromethyl)pyrimidin-2-yl)piperazin-1-yl)pentyl)-4-(trifluoromethyl)pyridazin-3(2H)-one], the pEC50 [2] was at most 5.00.
`O=C(c1cccc(Oc2cc(C(F)(F)F)c(=O)[nH]n2)c1)N1CCN(c2ncc(C(F)(F)F)cn2)CC1` [Example 35, 4-(trifluoromethyl)-6-(3-(4-(5-(trifluoromethyl)pyrimidin-2-yl)piperazine-1-carbonyl)phenoxy)pyridazin-3(2H)-one] showed a pEC50 [2] of at most 5.00.
Work on `O=C(CCCNc1c[nH]c(=O)c(C(F)(F)F)c1)N1CCN(c2ncc(C(F)(F)F)cn2)CC1` [Example 41, 5-((4-oxo-4-(4-(5-(trifluoromethyl)pyrimidin-2-yl)piperazin-1-yl)butyl)amino)-3-(trifluoromethyl)pyridin-2(1H)-one] yielded a pEC50 [2] of at most 5.00.
Work on `O=C([C@H]1CN(c2cc(C(F)(F)F)c(=O)[nH]n2)CCO1)N1CCN(c2ncc(C(F)(F)F)cn2)CC1` [Example 45, (R)-4-(trifluoromethyl)-6-(2-(4-(5-(trifluoromethyl)pyrimidin-2-yl)piperazine-1-carbonyl)morpholino)pyridazin-3(2H)-one] yielded a pEC50 [2] of at most 5.00.
`O=c1[nH]nc(N[C@]23CO[C@](C(=O)N4CCN(c5ncc(C(F)(F)F)cn5)CC4)(C2)C3)cc1C(F)(F)F` [Example 46, 5-(trifluoromethyl)-3-[[1-[4-[5-(trifluoromethyl)pyrimidin-2-yl]piperazine-1-carbonyl]-2-oxabicyclo[2.1.1]hexan-4-yl]amino]-1H-pyridazin-6-one] gave a pEC50 [2] of at most 5.00.
`O=c1[nH]nc(N[C@]23CC[C@](C(=O)N4CCN(c5ncc(C(F)(F)F)cn5)CC4)(C2)C3)cc1C(F)(F)F` [Example 48, 5-(trifluoromethyl)-3-[[4-[4-[5-(trifluoromethyl)pyrimidin-2-yl]piperazine-1-carbonyl]-1-bicyclo[2.1.1]hexanyl]amino]-1H-pyridazin-6-one] was tested, and the pEC50 [2] was at most 5.00.
`O=c1[nH]nc(NCC2(N3CCN(c4ncc(C(F)(F)F)cn4)CC3)COC2)cc1C(F)(F)F` [Example 59, 5-(trifluoromethyl)-3-[[3-[4-[5-(trifluoromethyl)pyrimidin-2-yl]piperazin-1-yl]oxetan-3-yl]methylamino]-1H-pyridazin-6-one] was tested, and the pEC50 [2] was at most 5.00.
`O=C([C@H]1CC[C@@H](Nc2cc(C(F)(F)F)c(=O)[nH]n2)C1)N1CCN(c2ncc(C(F)(F)F)cn2)CC1` [Example 63, 5-(trifluoromethyl)-3-[[(1R,3S)-3-[4-[5-(trifluoromethyl)pyrimidin-2-yl]piperazine-1-carbonyl]cyclopentyl]amino]-1H-pyridazin-6-one] showed a pEC50 [2] of at most 5.00.
`C[C@H](Nc1cc(C(F)(F)F)c(=O)[nH]n1)C(=O)N1CCN(c2ncc(C(F)(F)F)cn2)CC1` [Example 64, 3-[[(1S)-1-methyl-2-oxo-2-[4-[5-(trifluoromethyl)pyrimidin-2-yl]piperazin-1-yl]ethyl]amino]-5-(trifluoromethyl)-1H-pyridazin-6-one] gave a pEC50 [2] of 6.47.
`O=C([C@H]1CC[C@H](Nc2cc(C(F)(F)F)c(=O)[nH]n2)C1)N1CCN(c2ncc(C(F)(F)F)cn2)CC1` [Example 65, 5-(trifluoromethyl)-3-[[(1S,3S)-3-[4-[5-(trifluoromethyl)pyrimidin-2-yl]piperazine-1-carbonyl]cyclopentyl]amino]-1H-pyridazin-6-one] showed a pEC50 [2] of at most 5.00.
`C[C@@H](Nc1cc(C(F)(F)F)c(=O)[nH]n1)C(=O)N1CCN(c2ncc(C(F)(F)F)cn2)CC1` [Example 66, 3-[[(1R)-1-methyl-2-oxo-2-[4-[5-(trifluoromethyl)pyrimidin-2-yl]piperazin-1-yl]ethyl]amino]-5-(trifluoromethyl)-1H-pyridazin-6-one] showed a pEC50 [2] of at most 5.00.
`O=C(C[C@@H]1CCc2c1n[nH]c(=O)c2C(F)(F)F)N1CCN(c2ncc(C(F)(F)F)cn2)CC1` [Example 80, (S)-7-(2-oxo-2-(4-(5-(trifluoromethyl)pyrimidin-2-yl)piperazin-1-yl)ethyl)-4-(trifluoromethyl)-2,5,6,7-tetrahydro-3H-cyclopenta[c]pyridazin-3-one] was tested, and the pEC50 [2] was 6.37.
With `O=C(C[C@H]1CCc2c1n[nH]c(=O)c2C(F)(F)F)N1CCN(c2ncc(C(F)(F)F)cn2)CC1` [Example 81, (R)-7-(2-oxo-2-(4-(5-(trifluoromethyl)pyrimidin-2-yl)piperazin-1-yl)ethyl)-4-(trifluoromethyl)-2,5,6,7-tetrahydro-3H-cyclopenta[c]pyridazin-3-one] the pEC50 [2] was at most 5.00.
